From ChEMBL document CHEMBL1152899, “Synthesis and preliminary screening of novel indole-3-methanamines as 5-HT4 receptor ligands” (Eur J Med Chem, 2009)
The source made the active and inactive calls. The rule behind the calls is not given here.

Experiments:
[1] = target: T1, 5-hydroxytryptamine receptor 4 (Homo sapiens, UniProt Q13639); assay: Displacement of [3H]GR-113808 from human 5HT4b receptor expressed in COS7 cell membrane by scintillation counting
[2] = target: T1, 5-hydroxytryptamine receptor 4; assay: Displacement of [3H]GR-113808 from human 5HT4b receptor expressed in COS7 cell membrane at 1 uM by scintillation counting; format: cell membranes; conditions: COS-7
[3] = target: T1, 5-hydroxytryptamine receptor 4; assay: Displacement of [3H]GR-113808 from human recombinant 5HT4b receptor expressed in HEK293 cells by scintillation counting; format: cell-based

T1 sequence (Q13639 whole entry): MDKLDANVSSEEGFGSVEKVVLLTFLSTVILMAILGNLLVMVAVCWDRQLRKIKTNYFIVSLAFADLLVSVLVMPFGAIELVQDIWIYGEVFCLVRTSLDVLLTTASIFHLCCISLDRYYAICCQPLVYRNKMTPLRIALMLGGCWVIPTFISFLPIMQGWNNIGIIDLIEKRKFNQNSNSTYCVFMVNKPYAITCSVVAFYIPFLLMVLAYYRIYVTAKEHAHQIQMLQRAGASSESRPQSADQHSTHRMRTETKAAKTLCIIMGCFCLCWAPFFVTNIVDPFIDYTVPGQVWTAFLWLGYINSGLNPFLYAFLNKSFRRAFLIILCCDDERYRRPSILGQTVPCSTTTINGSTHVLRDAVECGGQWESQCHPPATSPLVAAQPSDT

SMILES: COc1ccc2[nH]cc(CNN3CCOCC3)c2c1
- Ki [1]: 145 nM
- Activity [2]: Active

SMILES: COc1ccc2[nH]cc(CCN)c2c1 [5-METHOXYTRYPTAMINE]
- Ki [1]: 26.9 nM
- Ki [3]: 245 nM
